According to ChEMBL document CHEMBL5233215, “Recent developments of chalcones as potential antibacterial agents in medicinal chemistry” (Eur J Med Chem, 2020):
≈ marks a conversion by molar mass, not a printed value.

What was measured:
[1] = test system: Mycobacterium tuberculosis; test: Antimycobacterial activity against Mycobacterium tuberculosis H37Rv CNCTC My 331/88 assessed as bacterial growth inhibition incubated for 5 days by resazurin dye based assay; format: functional; settings: H37Rv CNCTC My 331/88, 120 h, time 5 day
Mycobacterium kansasii = test: Antimycobacterial activity against Mycobacterium kansasii CNCTC My 235/80 assessed as bacterial growth inhibition incubated for 5 days by resazurin dye based assay; format: functional; settings: CNCTC My 235/80, 120 h, time 5 day
[2] = test system: Mycolicibacterium smegmatis; test: Antimycobacterial activity against Mycobacterium smegmatis ATCC 607 assessed as bacterial growth inhibition incubated for 48 hrs by resazurin dye based assay; format: functional
Staphylococcus aureus [3] = test: Antibacterial activity methicillin-resistant Staphylococcus aureus P4423 assessed as inhibition of bacterial growth by microdilution broth method; format: functional
Staphylococcus aureus [4] = test: Antibacterial activity methicillin-resistant Staphylococcus aureus P4627 assessed as inhibition of bacterial growth by microdilution broth method; format: functional
Staphylococcus aureus [5] = test: Antibacterial activity methicillin-resistant Staphylococcus aureus P4620 assessed as inhibition of bacterial growth by microdilution broth method; format: functional
Staphylococcus aureus [6] = test: Antibacterial activity methicillin-resistant Staphylococcus aureus B10760 assessed as inhibition of bacterial growth by microdilution broth method; format: functional
Staphylococcus aureus [7] = test: Antibacterial activity methicillin-resistant Staphylococcus aureus ST3151 assessed as inhibition of bacterial growth by microdilution broth method; format: functional
Staphylococcus aureus [8] = test: Antibacterial activity Staphylococcus aureus NCIM 2079 assessed as inhibition of bacterial growth incubated for 24 hrs by serial dilution technique; format: functional
Bacillus subtilis [9] = test: Antibacterial activity Bacillus subtilis NCIM 2063 assessed as inhibition of bacterial growth incubated for 24 hrs by serial dilution technique; format: functional
Escherichia coli [10] = test: Antibacterial activity Escherichia coli NCIM 2918 assessed as inhibition of bacterial growth incubated for 24 hrs by serial dilution technique; format: functional
Pseudomonas aeruginosa [11] = test: Antibacterial activity Pseudomonas aeruginosa Ps12 assessed as inhibition of bacterial growth incubated for 24 hrs by microbroth dilution assay; format: functional
Klebsiella pneumoniae [12] = test: Antibacterial activity Klebsiella pneumoniae K4 assessed as inhibition of bacterial growth incubated for 24 hrs by microbroth dilution assay; format: functional
DNA = test: Binding affinity to DNA (unknown origin) assessed as DNA intercalation by measuring amount of methyl green dye replaced from DNA-methyl green complex after 24 hrs by colourimetric assay; format: nucleic-acid assay
Staphylococcus aureus [13] = test: Antibacterial activity Staphylococcus aureus assessed as inhibition of bacterial growth by […] dye based colorimetric method; format: functional
Streptococcus pyogenes [14] = test: Antibacterial activity Streptococcus pyogenes assessed as inhibition of bacterial growth by […] dye based colorimetric method; format: functional
Escherichia coli [15] = test: Antibacterial activity Escherichia coli assessed as inhibition of bacterial growth by […] dye based colorimetric method; format: functional
DNA gyrase = DNA gyrase (Staphylococcus aureus, UniProt P0A0K8+P20831); test: Inhibition of Staphylococcus aureus DNA gyrase; format: protein-complex assay
Escherichia coli [16] = test: Antimicrobial activity against Escherichia coli MTCC 1573 assessed as bacterial growth inhibition incubated for 24 hrs by broth micro dilution method; format: functional
Staphylococcus aureus [17] = test: Antimicrobial activity against Staphylococcus aureus MTCC 1430 assessed as bacterial growth inhibition incubated for 24 hrs by broth micro dilution method; format: functional
Pseudomonas aeruginosa [18] = test: Antimicrobial activity against Pseudomonas aeruginosa MTCC 424 assessed as bacterial growth inhibition incubated for 24 hrs by broth micro dilution method; format: functional
Bacillus subtilis [19] = test: Antimicrobial activity against Bacillus subtilis MTCC 441 assessed as bacterial growth inhibition incubated for 24 hrs by broth micro dilution method; format: functional
Staphylococcus aureus [20] = test: Antibacterial activity methicillin-resistant Staphylococcus aureus USA300 assessed as inhibition of bacterial growth by CLSI based microbroth dilution assay; format: functional
Bacillus anthracis = test: Antibacterial activity Bacillus anthracis Sterne 34F2 assessed as inhibition of bacterial growth by CLSI based microbroth dilution assay; format: functional
Enterococcus faecalis = test: Antibacterial activity Enterococcus faecalis ATCC 33186 assessed as inhibition of bacterial growth by CLSI based microbroth dilution assay; format: functional
Staphylococcus aureus [21] = test: Antibacterial activity methicillin-sensitive Staphylococcus aureus ATCC 25923 assessed as inhibition of bacterial growth after 24 hrs by NCCLS protocol based microdilution method; format: functional
Staphylococcus aureus [22] = test: Antibacterial activity methicillin-resistant Staphylococcus aureus ATCC 44330 assessed as inhibition of bacterial growth after 24 hrs by NCCLS protocol based microdilution method; format: functional
Staphylococcus aureus [23] = test: Antimicrobial activity against Staphylococcus aureus assessed as bacterial growth inhibition incubated for 18 hrs by broth micro dilution method; format: functional
Escherichia coli [24] = test: Antimicrobial activity against Escherichia coli assessed as bacterial growth inhibition incubated for 18 hrs by broth micro dilution method; format: functional
Salmonella typhimurium = test: Antimicrobial activity against Salmonella typhimurium assessed as bacterial growth inhibition incubated for 18 hrs by broth micro dilution method; format: functional, Salmonella enterica subsp. enterica serovar Typhimurium; settings: Salmonella enterica
Streptococcus pyogenes [25] = test: Antimicrobial activity against Streptococcus pyogenes assessed as bacterial growth inhibition incubated for 18 hrs by broth micro dilution method
Staphylococcus aureus [26] = test: Antibacterial activity methicillin-sensitive Staphylococcus aureus ATCC 25923 assessed as inhibition of bacterial growth after 24 hrs by microdilution broth method; format: functional
Staphylococcus aureus [27] = test: Antibacterial activity methicillin-resistant Staphylococcus aureus ATCC 33591 assessed as inhibition of bacterial growth after 24 hrs by microdilution broth method; format: functional
Staphylococcus aureus [28] = test: Antibacterial activity Staphylococcus aureus ATCC 25923 assessed as inhibition of bacterial growth incubated for 16 hrs by CLSI protocol based microdilution method; format: functional
Staphylococcus aureus [29] = test: Antibacterial activity methicillin-resistant Staphylococcus aureus ATCC 700699 assessed as inhibition of bacterial growth incubated for 16 hrs by CLSI protocol based microdilution method; format: functional
Staphylococcus aureus [30] = test: Antibacterial activity Staphylococcus aureus ATCC 29213 assessed as inhibition of bacterial growth incubated for 16 hrs by CLSI protocol based microdilution method; format: functional
Staphylococcus aureus [31] = test: Antibacterial activity Staphylococcus aureus ATCC 33592 assessed as inhibition of bacterial growth incubated for 16 hrs by CLSI protocol based microdilution method; format: functional
Staphylococcus aureus [32] = test: Antibacterial activity Staphylococcus aureus ATCC 6538 assessed as inhibition of bacterial growth incubated for 24 hrs by broth microdilution method; format: functional
Listeria monocytogenes = test: Antibacterial activity Listeria monocytogenes ATCC 7644 assessed as inhibition of bacterial growth incubated for 24 hrs by broth microdilution method; format: functional
Staphylococcus aureus [33] = test: Antibacterial activity Staphylococcus aureus ATCC 588 assessed as inhibition of bacterial growth incubated for 24 hrs by broth microdilution method; format: functional
Staphylococcus aureus [34] = test: Antibacterial activity Staphylococcus aureus assessed as inhibition of bacterial growth incubated for 12 to 18 hrs by NCCLS protocol based microdilution method; format: functional; settings: time 12-18 hrs
Klebsiella pneumoniae [35] = test: Antibacterial activity Klebsiella pneumoniae assessed as inhibition of bacterial growth incubated for 12 to 18 hrs by NCCLS protocol based microdilution method; format: functional; settings: time 12-18 hrs

Sequence of DNA gyrase (P0A0K8 whole entry): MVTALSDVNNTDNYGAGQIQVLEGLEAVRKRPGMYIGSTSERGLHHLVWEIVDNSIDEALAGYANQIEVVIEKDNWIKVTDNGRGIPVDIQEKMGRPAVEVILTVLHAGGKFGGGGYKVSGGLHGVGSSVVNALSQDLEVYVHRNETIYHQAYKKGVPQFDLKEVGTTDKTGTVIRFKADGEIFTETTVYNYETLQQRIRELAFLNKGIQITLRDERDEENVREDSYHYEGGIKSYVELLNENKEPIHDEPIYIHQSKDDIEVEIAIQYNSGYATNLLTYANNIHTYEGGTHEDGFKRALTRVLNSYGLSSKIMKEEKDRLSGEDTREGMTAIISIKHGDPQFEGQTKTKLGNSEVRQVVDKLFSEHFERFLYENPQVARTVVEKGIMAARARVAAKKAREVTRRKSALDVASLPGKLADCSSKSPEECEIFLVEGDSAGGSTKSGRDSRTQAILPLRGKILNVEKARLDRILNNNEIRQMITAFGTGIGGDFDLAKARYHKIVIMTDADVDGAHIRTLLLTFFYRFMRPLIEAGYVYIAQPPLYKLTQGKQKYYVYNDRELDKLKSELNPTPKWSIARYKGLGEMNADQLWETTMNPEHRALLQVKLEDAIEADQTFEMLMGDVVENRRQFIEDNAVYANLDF
Sequence of DNA gyrase (P20831 whole entry): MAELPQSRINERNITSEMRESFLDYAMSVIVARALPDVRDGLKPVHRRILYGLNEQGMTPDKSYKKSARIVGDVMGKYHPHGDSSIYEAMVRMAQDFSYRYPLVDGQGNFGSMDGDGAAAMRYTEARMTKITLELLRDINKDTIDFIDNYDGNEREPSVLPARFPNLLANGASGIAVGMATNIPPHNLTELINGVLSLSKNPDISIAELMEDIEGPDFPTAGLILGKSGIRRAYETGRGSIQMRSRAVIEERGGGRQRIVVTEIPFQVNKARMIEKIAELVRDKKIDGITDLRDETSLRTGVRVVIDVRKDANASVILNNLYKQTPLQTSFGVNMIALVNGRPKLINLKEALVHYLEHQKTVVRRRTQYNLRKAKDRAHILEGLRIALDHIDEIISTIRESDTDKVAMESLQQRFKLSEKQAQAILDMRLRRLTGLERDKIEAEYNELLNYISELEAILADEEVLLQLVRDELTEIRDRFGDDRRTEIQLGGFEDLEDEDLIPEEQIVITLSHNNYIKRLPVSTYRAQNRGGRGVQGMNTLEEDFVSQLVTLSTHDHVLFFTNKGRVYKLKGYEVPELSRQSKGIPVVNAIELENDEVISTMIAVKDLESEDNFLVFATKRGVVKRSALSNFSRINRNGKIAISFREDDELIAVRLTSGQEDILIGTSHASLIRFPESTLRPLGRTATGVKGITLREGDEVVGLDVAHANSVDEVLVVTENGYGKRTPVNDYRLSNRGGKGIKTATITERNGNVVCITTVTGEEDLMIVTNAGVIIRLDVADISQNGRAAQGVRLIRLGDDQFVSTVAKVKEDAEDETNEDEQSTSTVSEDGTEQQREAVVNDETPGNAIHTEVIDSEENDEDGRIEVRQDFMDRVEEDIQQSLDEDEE

For `CC(C)(C)c1cnc(C(=O)/C=C/c2ccccc2F)cn1`, the MIC [1] was 6.25 µg/mL (≈ 22 µM), the MIC (Mycobacterium kansasii) was 12.5 µg/mL (≈ 44 µM) and the MIC [2] was over 500 µg/mL.

For `O=C(/C=C/c1ccc(O)cc1)c1ccc2c(c1O)CN(Cc1cc(C(F)(F)F)ccc1Cl)CO2`, the MIC (Staphylococcus aureus [3]) was 25 µg/mL (≈ 51 µM), the MIC (Staphylococcus aureus [4]) was 25 µg/mL (≈ 51 µM) and the MIC (Staphylococcus aureus [5]) was 25 µg/mL (≈ 51 µM). For the same compound, the MIC (Staphylococcus aureus [6]) was 25 µg/mL (≈ 51 µM) and the MIC (Staphylococcus aureus [7]) was 25 µg/mL (≈ 51 µM).

`O=C(/C=C/c1ccc(Br)cc1)c1ccc(Cl)cc1` was tested, and the MIC (Staphylococcus aureus [8]) was 1000 µg/mL (≈ 3110 µM), the MIC (Bacillus subtilis [9]) was 1000 µg/mL (≈ 3110 µM) and the MIC (Escherichia coli [10]) was 1000 µg/mL (≈ 3110 µM).

`COc1cc(C(CC(=O)c2ccc(C)cc2)SC(=S)N2CCN(Cc3ccccc3)CC2)cc(OC)c1OC` (configuration not stated) was tested, and the MIC (Pseudomonas aeruginosa [11]) was 32 µg/mL (≈ 56.7 µM), the MIC (Klebsiella pneumoniae [12]) was 64 µg/mL (≈ 113 µM) and the IC50 (DNA) was 30.97 µg/mL (≈ 54.8 µM).

Compound `Cc1c(Cl)ccc2cc(/C=C/C(=O)c3ccc(Br)cc3)c(Cl)nc12` has an MIC (Staphylococcus aureus [13]) of 125 µg/mL (≈ 297 µM), an MIC (Streptococcus pyogenes [14]) of 125 µg/mL (≈ 297 µM) and an MIC (Escherichia coli [15]) of 125 µg/mL (≈ 297 µM). The IC50 (DNA gyrase) was 332 nM.

In the case of `Cc1c(C(F)(F)F)cc(Cl)c(Cl)c1-n1nnc(C(=O)/C=C/c2cn(-c3ccccc3)nc2-c2ccc(Cl)cc2)c1C`, the MIC (Escherichia coli [16]) is reported as 3.12 µg/mL (≈ 5.06 µM), the MIC (Staphylococcus aureus [17]) is reported as 12.5 µg/mL (≈ 20.3 µM) and the MIC (Pseudomonas aeruginosa [18]) is reported as 3.12 µg/mL (≈ 5.06 µM). The MIC (Bacillus subtilis [19]) was 6.25 µg/mL (≈ 10.1 µM).

`Cc1cc(C(=O)CC(Sc2ccc(Cl)cc2)c2ccc(Cl)cc2)ccc1O` (configuration not stated) was tested, and the MIC (Staphylococcus aureus [20]) was 0.78 µg/mL (≈ 1.87 µM), the MIC (Bacillus anthracis) was 3.12 µg/mL (≈ 7.49 µM) and the MIC (Enterococcus faecalis) was 1.56 µg/mL (≈ 3.74 µM).

With `O=C(/C=C/c1ccccc1O)c1cccs1` the MIC (Staphylococcus aureus [21]) was 32 µg/mL (≈ 139 µM) and the MIC (Staphylococcus aureus [22]) was 64 µg/mL (≈ 278 µM).

Compound `COc1ccc(C(=O)CC(SC(=S)N2CCOCC2)c2ccc(OC)c(OC)c2)cc1` (configuration not stated) has an MIC (Pseudomonas aeruginosa [11]) of 32 µg/mL (≈ 69.3 µM), an MIC (Klebsiella pneumoniae [12]) of 32 µg/mL (≈ 69.3 µM) and an IC50 (DNA) of 27.48 µg/mL (≈ 59.5 µM).

Compound `Cc1cc(C(=O)/C=C/c2c(C)cn(-c3ccccc3)c2C)c(C)s1` has an MIC (Staphylococcus aureus [23]) of 32 µg/mL (≈ 95.4 µM), an MIC (Escherichia coli [24]) of 16 µg/mL (≈ 47.7 µM) and an MIC (Salmonella typhimurium) of 16 µg/mL (≈ 47.7 µM). For the same compound, the MIC (Streptococcus pyogenes [25]) was 32 µg/mL (≈ 95.4 µM).

`O=C(/C=C/c1ccccc1)c1ccc(O)cc1O` [2',4'-DIHYDROXYCHALCONE] showed an MIC (Staphylococcus aureus [26]) of 50 µg/mL (≈ 208 µM) and an MIC (Staphylococcus aureus [27]) of 100 µg/mL (≈ 416 µM).

Compound `CC(C)(C)c1cnc(C(=O)/C=C/c2ccccc2Cl)cn1` has an MIC [1] of 3.13 µg/mL (≈ 10.4 µM), an MIC (Mycobacterium kansasii) of 25 µg/mL (≈ 83.1 µM) and an MIC [2] of 3.9 µg/mL (≈ 13 µM).

In the case of `COc1ccc(-c2csc(/N=C/c3cc(/C=C/C(=O)c4ccc(C)cc4)cc(C(C)(C)C)c3O)n2)cc1OC`, the MIC (Staphylococcus aureus [28]) is reported as 5.8 µg/mL (≈ 10.7 µM), the MIC (Staphylococcus aureus [29]) is reported as 11.6 µg/mL (≈ 21.5 µM) and the MIC (Staphylococcus aureus [30]) is reported as 5.8 µg/mL (≈ 10.7 µM). It also gave an MIC (Staphylococcus aureus [31]) of 1.4 µg/mL (≈ 2.59 µM).

`O=C(CCc1ccc(O)cc1)c1c(O)cc(O)cc1O` [PHLORETIN] gave an MIC (Staphylococcus aureus [32]) of 7.81 µg/mL (≈ 28.5 µM), an MIC (Listeria monocytogenes) of 62.5 µg/mL (≈ 228 µM) and an MIC (Staphylococcus aureus [33]) of 7.81 µg/mL (≈ 28.5 µM).

`CSc1ccc(/C=C/C(=O)c2nnn(-c3c(C)c(C(F)(F)F)cc(Cl)c3Cl)c2C)cc1` showed an MIC (Escherichia coli [16]) of 3.12 µg/mL (≈ 6.42 µM), an MIC (Staphylococcus aureus [17]) of 6.25 µg/mL (≈ 12.9 µM) and an MIC (Pseudomonas aeruginosa [18]) of 12.5 µg/mL (≈ 25.7 µM). The MIC (Bacillus subtilis [19]) was 3.12 µg/mL (≈ 6.42 µM).

Work on `Nc1ccccc1C(=O)CC(c1ccc(Cl)cc1)S(=O)(=O)c1ccccc1` (configuration not stated) yielded an MIC (Staphylococcus aureus [34]) of 1.95 µg/mL (≈ 4.88 µM) and an MIC (Klebsiella pneumoniae [35]) of 25.5 µg/mL (≈ 63.8 µM).
